# From US20240197738A1, “COMPOUND 7AI IN TREATING EWING SARCOMA BY INHIBITING OTUD7A” (The University of North Carolina at Chapel Hill, priority 2021, published 2024)
# Key:
# A673^3A cells = experiment: Cell viability (MTT) assay, A673^3A knockin; type: cell-based, human; conditions: 3-day treatment (FIG. 5I)
# Procedure: Parental A673 cells were splitted into 24-well plates and transfected with sgRNA against EWS-FLI1 together with EWS-FLI1-3A-ssoDNA following protocols as described. 1-day post-transfection, cells were selected with 1 μg/ml puromycin for 3 days. Surviving cells were counted and each single cell was seeded into 96-well plates. Each single clone grown up in 96-well plates was amplified and one copy was used for genomic DNA extraction, followed by PCR and BpmI digestion to screen for potential knockin clones. BpmI negative clones are selected and sequenced to verify the knockin at the DNA level. 3 isogenic knockin clones were selected and saved.
# (§1) 2,000 indicated cells were seeded in each well of 96-well plates for MTT assays to monitor cell viability at indicated time periods using a method adapted from https://www.thermofisher.com/us/en/home/references/protocols/cell-culture/mtt-assay-protocol/vybrant-mtt-cell-proliferation-assay-kit.html. Briefly, at indicated time points post-cell seeding, 10 μL MTT solution was added into each well and incubated in the culture incubator (37° C. with 5% CO2) for 4 hrs. Then medium was removed and 100 μL DMSO was added into each well to dissolve the formazan crystal and incubated for 10 min at 37° C. After thorough mixing, absorbance at 540 nm was measured using the BioTek Cytation 5 Cell Imaging reader.
# EWS-FLI1 = experiment: Immunoblot of EWS-FLI1 protein abundance in cells; type: cell-based, human
# [1] = system: A673 cells xenografted tumor; experiment: Mouse xenograft assay with A673 cells; type: in vivo, nude mice
# Procedure: All mouse work has been reviewed and approved by UNC Institutional Animal Care and Use Committee under IACUC #19-031. Mouse xenograft assays were performed as described previously. Briefly, for mouse xenograft experiments, 2.5×10^6 parental or EWS-FLI1-3A knockin A673 cells were mixed 1:1 with matrigel (Corning 354230) and injected into the flank of indicated female nude mice (NCRNU-M-M from UNC Animal Facility, 4 weeks old). Six days post-injection, when the tumors were established, 2% sucrose with or without 1 μg/mL tetracycline was supplied in water for mice and refreshed every 5 days. Tumor size was measured every two days with a digital caliper, and the tumor volume was determined with the formula: L×W^2×0.52, where L is the longest diameter and W is the shortest diameter. After 22 days, mice were sacrificed, and tumors were dissected and weighed.
# For 7Ai treatment in nude mice, 2.5×10^6 A673 cells were mixed 1:1 with matrigel (Corning 354230) and injected into the flank of indicated female nude mice (NCRNU-M-M from UNC Animal Facility, 4 weeks old). Seven days post-injection, when the tumors were established, 100 μL 7Ai (25 mg/kg, dissolved in ethanol followed by the addition of sunflower oil and then sonicated at 4° C. in a water bath sonicator until 7Ai was completely dissolved) was given to mice through IP injections and this treatment was repeated every 3 days.
# Freshly dissected xenografted tumors are immediately fixed in 10% formalin for 2 days before transferring to 80% ethanol for one day to prepare tumor blocks. 4-μm sections were cut from each of the tumor blocks by UNC TPL facility and used for IHC study. IHC was performed as described previously. Normal human tissue TMA was purchased from UNC TPL facility. Human Ewing sarcoma tissues were obtained post-mortem and fixed in 10% formalin and embedded in paraffin.
# HUVEC cells = experiment: Cell viability (MTT) assay, HUVEC; type: cell-based, human; conditions: 72 hrs (FIG. 5S)
# Procedure: as §1
# EWS-FLI1 mRNA = experiment: RT-PCR of EWS-FLI1 mRNA levels; type: cell-based, human; conditions: 7Ai treatment
# Procedure: (§2) Cells were isolated by dissociation with 0.05% Trypsin, followed by media quenching. The cells were spun down at 300×rcf for 5 minutes. The media was aspirated, the pellet was suspended with 1×PBS, and then the cells were spun down again. The PBS was aspirated. RNA extraction was performed with an RNA extraction kit (BioBasic BS584). The final elution step was done with 50 μL of RNAse-free water. The […] with the NanoDrop OneC (Thermo Fisher Scientific). Three biological replicates were performed for RNA extraction. Quartile analysis was done to exclude outliers and significance was determined by one-way ANOVA tests.
# [2] = system: EWS-FLI1 target genes (NKX2.2, PSPH, LOX, TGFBR2); experiment: RT-PCR of EWS-FLI1 downstream target genes; type: cell-based, human
# Procedure: as §2
# A673 cells = experiment: Cell viability (MTT) assay, A673; type: cell-based, human; conditions: A673, 3-day treatment
# Procedure: as §1
# Ewing sarcoma cell = Ewing sarcoma cell growth in vitro (effective dose); type: cell-based, human
# Procedure: as §1
# [3] = target: T1, OTUD7A-mediated deubiquitination of EWS-FLI1 (Homo sapiens, UniProt Q8TE49); experiment: Ni-NTA pulldown ubiquitination assay in HEK293T cells; type: cell-based; conditions: compound added 10 hrs prior to cell collection (FIG. 5C)
# T1 construct: Myc-Flag; expressed in transfected cells; host or cells: HEK293T
# T1 sequence (Q8TE49 whole entry): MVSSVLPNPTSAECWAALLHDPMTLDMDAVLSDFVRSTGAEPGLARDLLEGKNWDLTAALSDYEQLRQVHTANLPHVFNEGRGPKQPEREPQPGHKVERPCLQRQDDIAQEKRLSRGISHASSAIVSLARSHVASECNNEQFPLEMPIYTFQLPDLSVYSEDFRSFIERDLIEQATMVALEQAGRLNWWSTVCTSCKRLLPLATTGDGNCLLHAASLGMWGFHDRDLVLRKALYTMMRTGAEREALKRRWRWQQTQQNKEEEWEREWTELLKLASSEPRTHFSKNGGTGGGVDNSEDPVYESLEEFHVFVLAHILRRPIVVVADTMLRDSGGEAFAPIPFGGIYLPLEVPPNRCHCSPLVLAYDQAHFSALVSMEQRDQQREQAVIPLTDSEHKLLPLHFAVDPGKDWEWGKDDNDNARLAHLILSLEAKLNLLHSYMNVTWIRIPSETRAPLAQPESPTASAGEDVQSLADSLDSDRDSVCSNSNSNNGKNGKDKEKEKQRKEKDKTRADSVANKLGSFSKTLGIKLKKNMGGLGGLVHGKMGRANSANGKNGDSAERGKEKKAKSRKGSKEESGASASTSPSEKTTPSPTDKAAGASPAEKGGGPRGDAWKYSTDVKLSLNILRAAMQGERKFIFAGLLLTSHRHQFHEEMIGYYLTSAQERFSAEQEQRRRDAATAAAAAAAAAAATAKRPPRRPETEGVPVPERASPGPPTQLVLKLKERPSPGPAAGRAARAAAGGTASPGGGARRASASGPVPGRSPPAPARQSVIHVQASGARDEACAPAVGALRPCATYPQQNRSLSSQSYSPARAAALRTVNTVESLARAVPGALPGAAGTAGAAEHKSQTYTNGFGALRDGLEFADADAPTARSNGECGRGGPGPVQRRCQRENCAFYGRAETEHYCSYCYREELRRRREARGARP
# Procedure: Cells were lysed in EBC buffer (50 mM Tris pH 7.5, 120 mM NaCl, 0.5% NP-40) or Triton X-100 buffer (50 mM Tris pH 7.5, 150 mM NaCl, 1% Triton X-100) supplemented with protease inhibitors (Complete Mini, Roche) and phosphatase inhibitors (phosphatase inhibitor cocktail set I and II, Calbiochem). The protein concentrations of whole cell lysates were measured by NanoDrop OneC using the Bio-Rad protein assay reagent as described previously. Equal amounts of whole cell lysates were resolved by SDS-PAGE and immunoblotted with indicated antibodies. For immunoprecipitations analysis, unless specified, 1000 μg lysates were incubated with the indicated antibody (1-2 μg) for 3-4 hr at 4° C. followed by 1 hr incubation with 10 μL Protein A magnetic beads (New England Biolabs). Or 1000 μg lysates containing tagged molecules were incubated with agarose beads coupled antibodies for the specific tag for 3-4 hr at 4° C. For endogenous IPs, incubation of cell lysates with antibodies was extended to overnight. The recovered immuno-complexes were washed five times with NETN buffer (20 mM Tris, pH 8.0, 100 mM NaCl, 1 mM EDTA and 0.5% NP-40) before being resolved by SDS-PAGE and immunoblotted with indicated antibodies.
smiles,measurement,setting,value
Cn1nccc1-c1cc(-c2ccnn2C)n2nc(C(=O)Nc3cnn(Cc4c(Cl)cccc4Cl)c3)cc2n1 [7Ai],proliferation (cell viability),A673^3A cells,not observed
same,EWS-FLI1 protein abundance,EWS-FLI1; A673-teton-shOTUD7A cells,reduced EWS-FLI1 protein abundance in A673-teton-shOTUD7A
same,EWS-FLI1 protein abundance,"EWS-FLI1; A673 and MHH-ES-1 cells, doses of 7Ai for 3 days",efficiently reduced EWS-FLI1 protein abundance in both Ewing sarcoma cells
same,EWS-FLI1 protein levels,"EWS-FLI1; A673 and SK-N-MC cells, 10 μM, 12 hrs",reduced EWS-FLI1 protein levels in both Ewing cells
same,"EWS-FLI1 protein levels, dose dependence","EWS-FLI1; A673 cells, indicated doses, 12 hrs (FIG. 5B)",reduced EWS-FLI1 protein levels in a dose-dependent manner
same,EWS-FLI1 protein expression,"EWS-FLI1; MHH-ES-1, EWS894 (FIG. 5E, 12 hrs), SK-N-MC and EWS502 cells",efficiently reduced EWS-FLI1 protein expression
same,EWS-FLI1 protein abundance,"EWS-FLI1; parental A673 cells, 10 μM, 12 hrs (FIG. 5D)",reduced EWS-FLI1 protein abundance in parental A673
same,tumor volume,"[1]; A673 xenograft in nude mice, 25 mg/kg IP, vs vehicle (FIG. 5P)",significantly reduced tumor volume
same,"tumor growth (dissected tumors, weight)","[1]; A673 xenograft in nude mice, 25 mg/kg IP, vs vehicle (FIGS. 5Q-5R)",significantly reduced
same,EWS-FLI1 protein in treated tumors,"[1]; A673 xenograft tumors, IHC",reduced EWS-FLI1 protein
same,apoptosis in treated tumors (cleaved-caspase3 staining),"[1]; A673 xenograft tumors, IHC",increased apoptosis
same,cell proliferation in treated tumors (Ki67 staining),"[1]; A673 xenograft tumors, IHC",reduced
same,body weight,"[1]; nude mice, 25 mg/kg IP, 3-week treatment period",did not significantly affect body weight
same,proliferation (cell viability),HUVEC cells,neglectable effects
same,EWS-FLI1 mRNA levels,EWS-FLI1 mRNA,did not affected EWS-FLI1 mRNA levels
same,transcription of EWS-FLI1 target genes NKX2.2 and PSPH,[2]; A673 cells (FIGS. 5K-5L),reduced transcription of EWS-FLI1 target genes
same,transcription of genes negatively regulated by EWS-FLI1 (LOX and TGFBR2),[2]; A673 cells (FIGS. 5M-5N),increased transcription of genes negatively regulated by EWS-FLI1
same,proliferation (cell viability),A673 cells,reduced proliferation
same,effective dose in retarding Ewing sarcoma cell growth in vitro,Ewing sarcoma cell,about 10 μM
same,OTUD7A-mediated deubiquitination of EWS-FLI1 in cells,[3],efficiently blocked OTUD7A-mediated deubiquitination of EWS-FLI1
